Results on 22 compounds are retold here after patent US4634707A, “5-Pyrimidinecarboxamides and treatment of leukemia and tumors therewith” (Uniroyal Chemical Company, priority 1984, dated 1987).

This assay concerns L1210 leukemia. Put plainly: NCI 3LE31, i.p.-implanted L1210 lymphoid leukemia. It is filed as in vivo, DBA/2 mice. The following applies: for activity in i.p.-implanted lymphoid leukemia test (in words): 3LE31, reproducible T/C of 150% or higher is considered significant activity; for number of mice cured (surviving after thirty day test period): six mice; for response vs control in vivo at 6.25 mg/kg: 6.25 mg/kg i.p. daily for nine days; for response vs control in vivo at 12.5 mg/kg: 12.5 mg/kg i.p. daily for nine days. The method, then: The spectrum of antitumor activity of the compound of Example 1 was determined employing a number of standard National Cancer Institute (NCI) protocols. The antitumor activity was determined in vivo against several different tumors, employing various treatment schedules and routes of administration.
Samples of the test compounds of Examples 1-10 and a number of structurally-related control compounds were tested in accordance with National Cancer Institute test protocol 3LE31 (NCI Protocol 1.100, Cancer Chemotherapy Reports Part 3, Vol. 3, No. 2, September 1972) to determine the effects of the several compounds on i.p.-implanted L1210 leukemia (J. Nat'l. Cancer Inst. 13(5):1328, 1953). Each test involved implantation of the leukemia cells in six DBA/2 mice, one sex per experiment, the male mice weighing a minimum of 18 grams and the female mice weighing a minimum of 17 grams, and all of the test animals being within a three gram weight range. The test compound was administered by i.p. injections, in 0.1 ml. doses of diluted ascitic fluid (10^5 cells per dose), commencing one day after the tumor implant and continuing daily for nine days.
The test animals were weighed and survivors recorded on a regular basis during a thirty day test period. The ratio of survival time for the treated and control animals (T/C) was determined as a percentage.
The tests were carried out at varying dosage levels and with varying numbers of repetitions, depending upon the results obtained with each test compoud. […] A reproducible T/C of 150% or higher is considered significant activity.
The number of mice "cured", viz., those surviving from each animal test group after the thirty day test period, is indicated in parenthesis following the T/C percentage data in Table III below: […]

Where [1] appears, read: Mus musculus, L1210, ip, 25 mg/kg i.p. daily for nine days, read-out: T/C % (survival time treated/control).
[2] abbreviates: Mus musculus, L1210, ip, 50 mg/kg i.p. daily for nine days, read-out: T/C % (survival time treated/control).
Where [3] appears, read: Mus musculus, L1210, ip, 100 mg/kg i.p. daily for nine days, read-out: T/C % (survival time treated/control).
The mark [4] stands for this setting: Mus musculus, L1210, ip, 200 mg/kg i.p. daily for nine days, read-out: T/C % (survival time treated/control).
[5] abbreviates: 25 mg/kg i.p. daily for nine days.
[6] abbreviates: 50 mg/kg i.p. daily for nine days.
Setting [7] is: 100 mg/kg i.p. daily for nine days.
[8] abbreviates: 200 mg/kg i.p. daily for nine days.
Where [9] appears, read: Mus musculus, L1210, ip, read-out: T/C % (survival time treated/control).

On to `O=C(Nc1ccc(F)cc1F)c1c(O)[nH]c(=S)[nH]c1=O` [Example 9, N-(2,4-difluorophenyl)-1,2,3,4-tetrahydro-6-hydroxy-4-oxo-1-thioxo-5-pyrimidinecarboxamide], for which, under setting [1], the response vs control in vivo at 25 mg/kg worked out at 113%. Besides, the response vs control in vivo at 50 mg/kg under setting [2] is 113%. Further, the response vs control in vivo at 100 mg/kg under setting [3] worked out at 114%. For the same compound, under setting [4], the response vs control in vivo at 200 mg/kg came to 133%.
For the compound `O=C(Nc1ccc(Cl)cc1)c1c(O)[nH]c(=S)n(-c2ccccc2)c1=O` [Control R], the “T/C % (survival time treated/control)” value is reported as 106% under setting [5], 121% under setting [6], 88% under setting [7] and “Toxic” under setting [8].
`O=C(Nc1ccc(Cl)cc1)c1c(O)[nH]c(=S)[nH]c1=O` [Control A]: the “activity in i.p.-implanted lymphoid leukemia test (in words)” value was “inactive”. Further, the “T/C % (survival time treated/control)” value under setting [8] is “Toxic”. Under “3LE31, upon further testing”, the “T/C” value is “less than 125%”. Also, the response vs control in vivo at 25 mg/kg under setting [1] was determined as 110%. Further, the response vs control in vivo at 50 mg/kg under setting [2] is 121%. Also, under setting [3], the response vs control in vivo at 100 mg/kg was 125%.
With `O=C(Nc1ccccc1Cl)c1c(O)[nH]c(=S)[nH]c1=O` [Example 2, N-(2-chlorophenyl)-1,2,3,4-tetrahydro-6-hydroxy-4-oxo-2-thioxo-5-pyrimidinecarboxamide], the “number of mice cured (surviving after thirty day test period)” value under setting [8] stood at 1. Also, under “400 mg/kg i.p. daily for nine days”, the “T/C % (survival time treated/control)” value is “Toxic”. Further, the response vs control in vivo at 25 mg/kg under setting [1] was 106%. The response vs control in vivo at 50 mg/kg under setting [2] was 118%. For the same compound, the response vs control in vivo at 100 mg/kg under setting [3] amounted to 127%.
As to `Cn1c(=S)[nH]c(O)c(C(=O)Nc2ccccc2)c1=O` [Control H], the “T/C % (survival time treated/control)” value is listed as “Toxic” under setting [5], “Toxic” under setting [6], “Toxic” under setting [7] and “Toxic” under setting [8]. For the setting “Mus musculus, L1210, ip, 1.56 mg/kg i.p. daily for nine days, read-out: T/C % (survival time treated/control)”, the response vs control in vivo at 1.56 mg/kg was 97%. Besides, under “Mus musculus, L1210, ip, 3.12 mg/kg i.p. daily for nine days, read-out: T/C % (survival time treated/control)”, the response vs control in vivo at 3.12 mg/kg amounted to 98%. Besides, under setting [9], the response vs control in vivo at 6.25 mg/kg turned out to be 98%. Under setting [9], the response vs control in vivo at 12.5 mg/kg came out at 98%.
As to `Cn1c(=S)[nH]c(O)c(C(=O)Nc2cccc([N+](=O)[O-])c2)c1=O` [Control I], the response vs control in vivo at 25 mg/kg under setting [1] stood at 102%. In addition, the response vs control in vivo at 50 mg/kg under setting [2] turned out to be 98%. Further, under setting [3], the response vs control in vivo at 100 mg/kg was found to be 102%. Also, the response vs control in vivo at 200 mg/kg under setting [4] is 112%.
For the compound `Cc1ccc(C)c(NC(=O)c2c(O)n(C)c(=S)n(C)c2=O)c1` [Control N], the “T/C % (survival time treated/control)” value was “Toxic” under setting [6], “Toxic” under setting [7] and “Toxic” under setting [8]. For the same compound, the response vs control in vivo at 25 mg/kg under setting [1] worked out at 103%.
Take `Cn1c(O)c(C(=O)Nc2ccccc2)c(=O)n(C)c1=S` [Control K]: the “T/C % (survival time treated/control)” value under setting [8] is recorded as “Toxic”. The response vs control in vivo at 25 mg/kg under setting [1] amounted to 107%. The response vs control in vivo at 50 mg/kg under setting [2] turned out to be 109%. Also, the response vs control in vivo at 100 mg/kg under setting [3] came out at 121%.
Regarding `O=c1[nH]c(O)c(C(=S)Nc2ccccc2)c(=O)[nH]1` [Control X], the response vs control in vivo at 25 mg/kg under setting [1] came to 105%. Besides, under setting [2], the response vs control in vivo at 50 mg/kg stood at 98%. Moreover, the response vs control in vivo at 100 mg/kg under setting [3] is 97%. The response vs control in vivo at 200 mg/kg under setting [4] was 104%.
For `COc1ccc(C)cc1NC(=O)c1c(O)[nH]c(=S)[nH]c1=O` [Example 10, 1,2,3,4-tethydro-6-hydroxy-N-(2-methoxy-5-methylphenyl)-4-oxo-2-thioxo-5-pyrimidinecarboxamide] the same measures were 110%, 130%, 113% and 113%.
In the case of `O=C(Nc1ccccc1)c1c(O)[nH]c(=S)n(-c2ccccc2)c1=O` [Control P], the “T/C % (survival time treated/control)” value by setting is: under setting [5], 110%; under setting [6], 116%; under setting [7], “Toxic”; under setting [8], “Toxic”.
In the case of `Cc1ccccc1NC(=O)c1c(O)[nH]c(=O)[nH]c1=O` [Control D], the response vs control in vivo at 25 mg/kg under setting [1] is 108%. Further, the response vs control in vivo at 50 mg/kg under setting [2] was 104%. For the same compound, the response vs control in vivo at 100 mg/kg under setting [3] is 106%. For the same compound, under setting [4], the response vs control in vivo at 200 mg/kg turned out to be 124%.
With `O=C(Nc1ccc(Cl)cc1)c1c(O)[nH]c(=S)n(-c2ccccc2)c1=O` [Control Q], the “T/C % (survival time treated/control)” value is, setting by setting: under setting [6], 92%; under setting [7], 112%; under setting [8], “Toxic”. Also, the response vs control in vivo at 25 mg/kg under setting [1] was found to be 100%.
As for `Cc1ccccc1NC(=O)c1c(O)[nH]c(=S)[nH]c1=O` [Example 3, 1,2,3,4-tetrahydro-6-hydroxy-N-(2-methylphenyl)-4-oxo-2-thioxo-5-pyrimidine-carboxamide], the “T/C % (survival time treated/control)” value under setting [8] is “Toxic”. Further, the response vs control in vivo at 25 mg/kg under setting [1] worked out at 108%. Under setting [2], the response vs control in vivo at 50 mg/kg stood at 112%.
On to `O=c1[nH]c(=S)[nH]c(O)c1C(=S)Nc1ccccc1` [Control W], for which, under setting [1], the response vs control in vivo at 25 mg/kg stood at 101%. Further, under setting [2], the response vs control in vivo at 50 mg/kg turned out to be 102%. Under setting [3], the response vs control in vivo at 100 mg/kg came out at 94%. Moreover, the response vs control in vivo at 200 mg/kg under setting [4] is 103%.
With `Cn1c(=S)[nH]c(O)c(C(=O)Nc2cccc([N+](=O)[O-])c2)c1=O` [Control J], the “T/C % (survival time treated/control)” value under setting [5] turned out to be 100%, the “T/C % (survival time treated/control)” value under setting [6] is 94%, the “T/C % (survival time treated/control)” value under setting [7] amounted to 104% and the “T/C % (survival time treated/control)” value under setting [8] was 101%.
Turning to `CCOc1ccc(NC(=O)c2c(O)[nH]c(=S)[nH]c2=O)cc1` [Example 7, N-(4-ethoxyphenyl)-1,2,3,4-tetrahydro-6-hydroxy-4-oxo-2-thioxo-5-pyrimidinecarboxamide], under setting [8], the “T/C % (survival time treated/control)” value is given as “Toxic”. Under setting [9], the response vs control in vivo at 6.25 mg/kg stood at 102% and the response vs control in vivo at 12.5 mg/kg turned out to be 97%. Also, the response vs control in vivo at 25 mg/kg under setting [1] stood at 115%. The response vs control in vivo at 100 mg/kg under setting [3] worked out at 178%.
On to `O=C(Nc1ccccc1)c1c(O)[nH]c(=O)[nH]c1=O` [Control B], for which the “activity in i.p.-implanted lymphoid leukemia test (in words)” value was “exhibited significant activity”. Moreover, the “number of mice cured (surviving after thirty day test period)” value under setting [8] was 2. Further, the response vs control in vivo at 25 mg/kg under setting [1] came to 118%.
For the compound `COC(=O)c1ccccc1NC(=O)c1c(O)n(-c2ccccc2)c(=S)n(-c2ccccc2)c1=O` [Control V], the “T/C % (survival time treated/control)” value is, setting by setting: under setting [7], “Toxic”; under setting [8], “Toxic”. In addition, the response vs control in vivo at 25 mg/kg under setting [1] came to 102%. Moreover, the response vs control in vivo at 50 mg/kg under setting [2] is 106%.
With `O=C(Nc1ccccc1F)c1c(O)[nH]c(=S)[nH]c1=O` [Example 8, N-(2-fluorophenyl)-1,2,3,4-tetrahydro-6-hydroxy-4-oxo-2-thioxo-5-pyrimidinecarboxamide], under setting [1], the response vs control in vivo at 25 mg/kg was determined as 148%. Under setting [2], the response vs control in vivo at 50 mg/kg came to 105%. The response vs control in vivo at 100 mg/kg under setting [3] amounted to 128%. In addition, the response vs control in vivo at 200 mg/kg under setting [4] is 118%.
Consider `O=C(Nc1ccc(F)cc1)c1c(O)[nH]c(=S)[nH]c1=O` [Example 5, N-(4-fluorophenyl)-1,2,3,4-tetrahydro-6-hydroxy-4-oxo-2-thioxo-5-pyrimidinecarboxamide], for which the “activity in i.p.-implanted lymphoid leukemia test (in words)” value is recorded as “With the exception of the compound of Example 5, the materials of the other examples similarly exhibited significant activity”. Moreover, the “T/C % (survival time treated/control)” value under setting [8] was “Toxic”. Besides, the response vs control in vivo at 25 mg/kg under setting [1] is 111%. Besides, the response vs control in vivo at 50 mg/kg under setting [2] stood at 112%. Under setting [3], the response vs control in vivo at 100 mg/kg was found to be 133%.
Consider `Cn1c(=S)[nH]c(O)c(C(=O)Nc2ccccc2)c1=O` [Control G], for which, under setting [8], the “T/C % (survival time treated/control)” value is “Toxic”. In addition, under setting [1], the response vs control in vivo at 25 mg/kg turned out to be 94%. Further, under setting [2], the response vs control in vivo at 50 mg/kg was found to be 98%. Besides, the response vs control in vivo at 100 mg/kg under setting [3] amounted to 87%.
